From US7223888B2, “Mu opioid receptor ligands: methods of use and synthesis” (President and Fellows of Harvard College, priority 2002, dated 2007)
Like-named read-outs stand apart in the source and are kept apart here.

Columns and labels:
[1] = molecular target: T1, hMOR-1 (Homo sapiens, UniProt P35372); assay: Opioid receptor competitive binding assay, MOR (3H-DAMGO); settings: Ki MOR, 3H-DAMGO, hMOR-1 stably transfected into CHO cells
T1 construct: purchased Amersham Biosciences; host or cells: stably transfected CHO cells (membrane preparation)
Protocol: (§1) For selected compounds, Ki for MOR, DOR, and KOR were determined according to the following procedure: Recombinant hMOR-1 membrane preps from stably transfected CHO cells and recombinant hDOR-1 membrane preps from stably transfected HEK-293 cells were purchased from Amersham Biosciences. Guinea pig cerebellum preparations were used for KOR assays.
(§2) Each microassay from an assay plate was filtered through an individual well of a Packard GF/B 96-well filter plate (glass fiber filter) to collect the membranes. Each well was washed twice with 200 μL of ice cold wash buffer (50 mM Tris, pH 7.4). The filter plate was allowed to dry overnight, the back was sealed, and Packard Bioscience Microscint PS scintillation fluid (75 μL) was added to each well, which was then counted for ^3H for 2 minutes using a Packard Bioscience TopCount scintillation counter plate reader.
(§3) Each compound was assayed at 8 concentrations, using half-log serial dilutions. Each concentration was tested in triplicate, and the ^3H cpm were averaged.
(§4) This concentration was determined experimentally by scintillation counting an aliquot of the radioligand stock solution used in the assay.
(§5) Kd=the binding constant for the radioligand.
(§6) This triplicate experiment was repeated three times for the MOR and twice for the DOR and the KOR.

[2] = molecular target: T2, hDOR-1 (Homo sapiens, UniProt P41143); assay: Opioid receptor competitive binding assay, DOR
T2 construct: purchased Amersham Biosciences; host or cells: stably transfected HEK-293 cells (membrane preparation)
Protocol: as §1, §2, §3, §4, §5, §6

[3] = molecular target: T3, KOR (Cavia porcellus, UniProt P41144); assay: Opioid receptor competitive binding assay, KOR (3H-U-69,593); design: species or system guinea pig; settings: for Ki KOR/Ki MOR: selectivity for MOR versus KOR
T3 construct: from tissue; host or cells: guinea pig cerebellum preparation
Protocol: as §1, §2, §3, §6

[4] = molecular target: T1, hMOR-1; assay: MOR GTP-γ-S assay (MOR activation); format: biochemical; settings: CHO membranes with hMOR-1; for % GTP-γ-S bound: Table 16, compound 10 μM, percentage of DAMGO induced GTP-γ-35S specific binding; for % GTP-γ-35S bound: Table 15, percentage of DAMGO induced GTP-g-35S specific binding
Protocol: MOR GTP-γ-S assay was run in the same 200 μL, 96 well format as the binding assay. Each microassay contained experimental compound, 0.04 nM GTP-γ-^35S, 9 μM GDP, and about 0.02 nM MOR (from stably transfected CHO cells), in assay buffer (50 mM Tris-HCl, 3 mM MgCl2, 0.2 mM EGTA, 100 mM NaCl, pH 7.4). The assays were incubated for two to three hours at room temperature, then filtered onto a filter plate. The plate was dried; scintillation fluid was added, and the wells were counted for ^35S. Blank assays were run to determine non-specific binding. […] The results were averaged; the non-specific counts were subtracted, and the resulting value was expressed as a percent of the value obtained for DAMGO. The error reported is two standard deviations from the mean of the quadruplicate experiment. The values were compared using one way Anova with Tukey's post-hoc analysis.

[5] = Table 4, errors 95% confidence interval
[6] = Ki DOR, Table 7, 3H-diprenorphine, hDOR-1 stably transfected into HEK-293 cells, errors two standard deviations
[7] = Table 13, selectivity for MOR versus DOR (footnote: 3H-DPDPE, hDOR-1)
[8] = Ki KOR, Table 10, 3H-U-69,593, guinea pig cerebellum preparation, errors two standard deviations
[9] = Table 3, errors 95% confidence interval
[10] = Ki DOR, Table 6, footnote:, hDOR-1 stably transfected into HEK-293 cells, errors two standard deviations
[11] = Table 12, selectivity for MOR versus DOR (3H-DPDPE, hDOR-1)
[12] = Ki KOR, Table 9, 3H-U-69,593, guinea pig cerebellum preps, errors two standard deviations

## NC(=O)C(Cc1ccccc1)NC(=O)C(Cc1ccccc1)C(O)/C=C/C(O)CC(N)Cc1ccc(O)cc1 (single isomer, unassigned) [(R, R, S, S)-43, 7-(1-Carbamoyl-2-phenyl-ethylcarbamoyl)-3,6-dihydroxy-1-(4-hydroxy-benzyl)-8-phenyl-oct-4-enyl-ammonium]
[1]; Table 5
  Ki: 0.038 ± 0.013 µM
[2]; read-out: Ki DOR
  Ki: 1.2 ± 0.1 µM
[3]; read-out: Ki KOR
  Ki: 0.88 ± 0.55 µM
[4]
  % GTP-γ-S bound: 30 ± 6%

## NC(=O)C(Cc1ccccc1)NC(=O)C(Cc1ccccc1)C(O)/C=C/C(O)CC(N)Cc1ccc(O)cc1 (single isomer, unassigned) [(R, S, R, R)-43, 7-(1-Carbamoyl-2-phenyl-ethylcarbamoyl)-3,6-dihydroxy-1-(4-hydroxy-benzyl)-8-phenyl-oct-4-enyl-ammonium]
[1]; Table 5
  Ki: 0.02 ± 0.003 µM
[2]; read-out: Ki DOR
  Ki: 2.5 ± 0.3 µM
[3]; read-out: Ki KOR
  Ki: 0.27 ± 0.03 µM
[4]
  % GTP-γ-S bound: 68 ± 10%

## NC(=O)C(Cc1ccccc1)NC(=O)C(Cc1ccccc1)C(O)/C=C/C(O)CC(N)Cc1ccc(O)cc1 (single isomer, unassigned) [(S, R, R, S)-43, 7-(1-Carbamoyl-2-phenyl-ethylcarbamoyl)-3,6-dihydroxy-1-(4-hydroxy-benzyl)-8-phenyl-oct-4-enyl-ammonium]
[1]; Table 5
  Ki: 0.028 ± 0.006 µM
[2]; read-out: Ki DOR
  Ki: 2.5 ± 3 µM
[3]; read-out: Ki KOR
  Ki: 1.2 ± 0.6 µM
[4]
  % GTP-γ-S bound: 48 ± 8%

## NC(=O)C(Cc1ccccc1)NC(=O)C(Cc1ccccc1)C(O)/C=C/C(O)CC(N)Cc1ccc(O)cc1 (single isomer, unassigned) [(S, R, S, R)-43, 7-(1-Carbamoyl-2-phenyl-ethylcarbamoyl)-3,6-dihydroxy-1-(4-hydroxy-benzyl)-8-phenyl-oct-4-enyl-ammonium]
[1]; Table 5
  Ki: 0.032 ± 0.006 µM
[2]; read-out: Ki DOR
  Ki: 0.74 ± 0.04 µM
[3]; read-out: Ki KOR
  Ki: 0.29 ± 0.1 µM
[4]
  % GTP-γ-S bound: 37 ± 7%

## NC(=O)C(Cc1ccccc1)NC(=O)C(Cc1ccccc1)C(O)/C=C/C(O)CC(N)Cc1ccc(O)cc1 (single isomer, unassigned) [(S, R, S, S)-43, 7-(1-Carbamoyl-2-phenyl-ethylcarbamoyl)-3,6-dihydroxy-1-(4-hydroxy-benzyl)-8-phenyl-oct-4-enyl-ammonium]
[1]; Table 5
  Ki: 0.042 ± 0.005 µM
[2]; read-out: Ki DOR
  Ki: 2.5 ± 0.3 µM
[3]; read-out: Ki KOR
  Ki: 3.1 ± 2.6 µM
[4]
  % GTP-γ-S bound: 57 ± 12%

## NC(=O)C(Cc1ccccc1)NC(=O)C(Cc1ccccc1)C(O)/C=C/C(O)CC(N)Cc1ccc(O)cc1 (single isomer, unassigned) [(S, S, R, S)-43, 7-(1-Carbamoyl-2-phenyl-ethylcarbamoyl)-3,6-dihydroxy-1-(4-hydroxy-benzyl)-8-phenyl-oct-4-enyl-ammonium]
[1]; Table 5
  Ki: 0.014 ± 0.001 µM
[2]; read-out: Ki DOR
  Ki: 1.2 ± 0.1 µM
[3]; read-out: Ki KOR
  Ki: 0.45 ± 0.06 µM
[4]
  % GTP-γ-S bound: 25 ± 5%

## Cc1cc(O)cc(C)c1CC(N)C(O)C/C=C/C(O)C(Cc1ccccc1)C(=O)NC(Cc1ccccc1)C(N)=O (single isomer, unassigned) [(S,R,R,R)-25, 7-(1-Carbamoyl-2-phenyl-ethylcarbamoyl)-2,6-dihydroxy-1-(4-hydroxy-2,6-dimethyl-benzyl)-8-phenyl-oct-4-enyl-ammonium]
[1]; [5]
  Ki: 0.0016 ± 0.0009 µM
[2]; [6]
  Ki: 0.085 ± 0.013 µM
[2]; [7]
  Ki DOR/Ki MOR: 53
[3]; [8]
  Ki: 0.025 ± 0.014 µM
[3]; Table 13
  Ki KOR/Ki MOR: 16
[4]; compound 10 mM (footnote)
  % GTP-γ-35S bound: 43 ± 9%

## Cc1cc(O)cc(C)c1CC(N)C(O)C/C=C/C(O)C(Cc1ccccc1)C(=O)NCCc1ccccc1 (single isomer, unassigned) [(S,R,R,R)-26, 2,6-Dihydroxy-1-(4-hydroxy-2,6-dimethyl-benzyl)-7-phenethylcarbamoyl-8-phenyl-oct-4-enyl-ammonium]
[1]; [5]
  Ki: 0.00072 ± 0.00026 µM
[2]; [6]
  Ki: 0.066 ± 0.001 µM
[2]; [7]
  Ki DOR/Ki MOR: 91
[3]; [8]
  Ki: 0.069 ± 0.02 µM
[3]; Table 13
  Ki KOR/Ki MOR: 96
[4]; compound 10 mM (footnote)
  % GTP-γ-35S bound: 27 ± 9%

## Cc1cc(O)cc(C)c1CC(N)C(O)C/C=C/C(O)C(Cc1ccccc1)C(=O)NC(Cc1ccccc1)C(N)=O (single isomer, unassigned) [(S,R,S,R)-25, 7-(1-Carbamoyl-2-phenyl-ethylcarbamoyl)-2,6-dihydroxy-1-(4-hydroxy-2,6-dimethyl-benzyl)-8-phenyl-oct-4-enyl-ammonium]
[1]; [5]
  Ki: 0.0012 ± 0.0003 µM
[2]; [6]
  Ki: 0.046 ± 0.016 µM
[2]; [7]
  Ki DOR/Ki MOR: 38
[3]; [8]
  Ki: 0.015 ± 0.008 µM
[3]; Table 13
  Ki KOR/Ki MOR: 13
[4]; compound 10 mM (footnote)
  % GTP-γ-35S bound: 14 ± 3%

## Cc1cc(O)cc(C)c1CC(N)C(O)C/C=C/C(O)C(Cc1ccccc1)C(=O)NCCc1ccccc1 (single isomer, unassigned) [(S,R,S,R)-26, 2,6-Dihydroxy-1-(4-hydroxy-2,6-dimethyl-benzyl)-7-phenethylcarbamoyl-8-phenyl-oct-4-enyl-ammonium]
[1]; [5]
  Ki: 0.00024 ± 5e-05 µM
[2]; [6]
  Ki: 0.123 ± 0.008 µM
[2]; [7]
  Ki DOR/Ki MOR: 510
[3]; [8]
  Ki: 0.051 ± 0.001 µM
[3]; Table 13
  Ki KOR/Ki MOR: 210
[4]; compound 10 mM (footnote)
  % GTP-γ-35S bound: 49 ± 4%

## Cc1cc(O)cc(C)c1CC(N)C(O)C/C=C/C(O)C(Cc1ccccc1)C(=O)NC(Cc1ccccc1)C(N)=O (single isomer, unassigned) [(S,S,R,R)-25, 7-(1-Carbamoyl-2-phenyl-ethylcarbamoyl)-2,6-dihydroxy-1-(4-hydroxy-2,6-dimethyl-benzyl)-8-phenyl-oct-4-enyl-ammonium]
[1]; [5]
  Ki: 0.00042 ± 9e-05 µM
[2]; [6]
  Ki: 0.036 ± 0.006 µM
[2]; [7]
  Ki DOR/Ki MOR: 86
[3]; [8]
  Ki: 0.021 ± 0.004 µM
[3]; Table 13
  Ki KOR/Ki MOR: 49
[4]; compound 10 mM (footnote)
  % GTP-γ-35S bound: 75 ± 11%

## Cc1cc(O)cc(C)c1CC(N)C(O)C/C=C/C(O)C(Cc1ccccc1)C(=O)NCCc1ccccc1 (single isomer, unassigned) [(S,S,R,R)-26, 2,6-Dihydroxy-1-(4-hydroxy-2,6-dimethyl-benzyl)-7-phenethylcarbamoyl-8-phenyl-oct-4-enyl-ammonium]
[1]; [5]
  Ki: 0.00037 ± 0.00013 µM
[2]; [6]
  Ki: 0.026 ± 0.003 µM
[2]; [7]
  Ki DOR/Ki MOR: 70
[3]; [8]
  Ki: 0.064 ± 0.014 µM
[3]; Table 13
  Ki KOR/Ki MOR: 170
[4]; compound 10 mM (footnote)
  % GTP-γ-35S bound: 48 ± 9%

## NC(Cc1ccc(O)cc1)C(O)C/C=C/C(O)C(Cc1ccccc1)C(=O)NC(CO)Cc1ccccc1 (single isomer, unassigned) [(S,S,S,R)-11, (E)-8-Amino-2-benzyl-3,7-dihydroxy-9-(4-hydroxy-phenyl)-non-4-enoic acid (1-hydroxymethyl-2-phenyl-ethyl)-amide]
[1]; [9]
  Ki: 0.01 ± 0.002 µM
[2]; [10]
  Ki: 1.1 ± 0.1 µM
[2]; [11]
  Ki DOR/Ki MOR: 110
[3]; [12]
  Ki: 6 ± 0.7 µM
[3]; Table 12
  Ki KOR/Ki MOR: 600

## C=CC(O)C(Cc1ccccc1)NC(=O)C(Cc1ccccc1)C(O)/C=C/CC(O)C(N)Cc1ccc(O)cc1 (single isomer, unassigned) [(S,S,S,R)-12, (E)-8-Amino-2-benzyl-3,7-dihydroxy-9-(4-hydroxy-phenyl)-non-4-enoic acid (1-benzyl-2-hydroxy-but-3-enyl)-amide]
[1]; [9]
  Ki: 0.02 ± 0.001 µM
[2]; [10]
  Ki: 0.68 ± 0.04 µM
[2]; [11]
  Ki DOR/Ki MOR: 34
[3]; [12]
  Ki: 1.05 ± 0.01 µM
[3]; Table 12
  Ki KOR/Ki MOR: 53

## NC(=O)C(Cc1ccccc1)OC(=O)C(Cc1ccccc1)C(O)/C=C/CC(O)C(N)Cc1ccc(O)cc1 [(S,S,S,R)-13, (E)-8-Amino-2-benzyl-3,7-dihydroxy-9-(4-hydroxy-phenyl)-non-4-enoic acid1-carbamoyl-2-phenyl-ethyl ester]
[1]; [9]
  Ki: 0.037 ± 0.008 µM
[2]; read-out: Ki DOR
  Ki: 0.91 ± 0.25 µM
[3]; read-out: Ki KOR
  Ki: 6 ± 2.1 µM

## Cc1cc(O)cc(C)c1CC(N)C(O)C/C=C/C(O)C(Cc1ccccc1)C(=O)NC(CN)Cc1ccccc1 [(S,S,S,R)-28]
[1]; [5]
  Ki: 0.00045 ± 5e-05 µM
[2]; [6]
  Ki: 0.021 ± 0.004 µM
[4]; compound 10 mM (footnote)
  % GTP-γ-35S bound: 47 ± 5%

## NC(=O)[C@H](Cc1ccccc1)NC(=O)[C@H](Cc1ccccc1)NC(=O)[C@H]1CCCN1C(=O)[C@@H](N)Cc1ccc(O)cc1 [Compound 1, Endomorphin-2, reference compound]
[1]; [9]
  Ki: 0.0012 ± 0.0001 µM
[1]; [5]
  Ki: 0.00069 ± 0.00018 µM
[1]; Table 5
  Ki: 0.001 ± 0.0001 µM
[4]; compound 10 μM (footnote)
  % GTP-γ-35S bound: 100 ± 6%
[4]
  % GTP-γ-S bound: 100 ± 6%
